“Also recorded” adds a separate entry of the source.
Experiments:
[1] = tested on: Cyclin E, BimEL, CDT1; test: Western blotting of Cul-1 and Cul-4A substrates in THLE2 liver cell line; type: cell-based; settings: dose-range, 24 h
Description: (§1) A key function of cullin neddylation is to control E3 ubiquitin ligase activity of the cullin complex, which in turn regulates protein turnover in cells. DI-591 (Example 58) was evaluated for its effect on neddylation of 5 different cullins in the THLE2 liver cell line with the data shown in FIG. 1. Immortalized THLE2 liver cell line was treated by a dose-range of DCN1 inhibitor DI-591 or a dose-range of MLN4924 for 24 h. The protein levels of neddylated- and un-neddylated-cullin family proteins and several well-known substrates of cullins were examined by western blotting analysis. GAPDH was used as a loading control. […] Immunohistochemical data confirmed the increased NRF2 protein by Example 58 in liver cells.
(§2) Immortalized liver THLE2 (ATCC® CRL-2706™) cell lines was purchased from the ATCC (Rockville, MD). The cell line was maintained in BEGM Bronchial Epithelial Cell Growth Medium from Lonza/Clonetics Corporation (CC3170, Walkersville, MD) supplemented with 10% FBS and pen-strep at 37° C. in a humidified incubator with 5% CO2. Esophageal cancer KYSE140 cell line (ACC 348) was purchased from DSMZ (Braunschweig, Germany). The cell line was maintained RPMI1640 supplemented with 10% FBS and pen-strep at 37° C. in a humidified incubator with 5% CO2.
(§3) Treated cells were lysed by RIPA buffer supplemented with protease inhibitor. The expression level of indicated proteins was examined by western blotting analysis. GAPDH was used as a loading control. Antibodies were purchased: Cullin 1 (sc-11384), Cullin2 (sc-10781), Cullin5 (sc-13014) and Cullin7 (sc-134565) from Santa Cruz Biotech. (Santa Cruz, CA); Cullin 4A (PA5-14542), Cullin 4B (PA5-35239), Cullin9 (PA5-20277), DCN2 (DCUN1D2, PA5-31607) and DCN3 (DCUN1D3, PA5-44000) from ThermoFisher Scientific (Wayne, MI); Cullin 3 (2759), NRF2 (12721), HO-1 (70081), NQ01 (3187), Cyclin E (4129), Bim (2819), Keap1 (8047) and UBC12 (4913) from Cell Signaling Technology (Boston, MA); DCN1 (GWB-E3D700) from GenWay Biotech (San Diego, CA). Results are representative of three independent experiments.

[2] = tested on: mRNA of NRF2, NQ01 and HO-1; test: qRT-PCR of NRF2 and NRF2-regulated genes in THLE2 liver cell line; type: cell-based; settings: 10 μM, different time points
Excerpt: FIG. 4 provides qRT-PCR analysis of mRNA levels of NRF2 and NRF2-regulated genes in the THLE2 liver cell line. […] The relative mRNA levels of NRF2, NQ01 and HO-1 were examined by quantitative real-time RT-PCR assay.

[3] = tested on: neddylation of cullin 1; test: Western blotting of neddylated and un-neddylated cullin 1 in THLE2 liver cell line; type: cell-based; settings: DI-591 at 10 μM or MLN4924 at 0.3 μM, 5 minutes to 24 hours
Description: (§4) DI-591 (Example 58) was further compared to MLN4924 for their ability to inhibit neddylation of cullin 1 and cullin 3 in the THLE2 liver cell line with the data shown in FIG. 2. THLE2 liver cell line was treated by DI-591 at 10 μM or MLN4924 at 0.3 μM for 5 minutes (5m), 30 minutes (30 m), 2 hours (2h) and 24 hours (24h). […] In comparison, MLN4924 inhibits the neddylation of both cullin 1 and 3.
as §2
(§5) Treated cells were lysed by RIPA buffer supplemented with protease inhibitor. The expression level of indicated proteins was examined by western blotting analysis. GAPDH was used as a loading control. Antibodies were purchased: Cullin 1 (sc-11384), Cullin2 (sc-10781), Cullin5 (sc-13014) and Cullin7 (sc-134565) from Santa Cruz Biotech. […]

[4] = tested on: neddylation of cullin 3; test: Western blotting of neddylated and un-neddylated cullin 3 in THLE2 liver cell line; type: cell-based
Description: as §1, §4, §2, §5

[5] = tested on: NRF2; test: Western blotting of NRF2 and NRF2-regulated proteins in THLE2 liver cell line; type: cell-based
Description: as §1
NRF2 is a transcriptional factor and a master regulator of antioxidant responses, regulating numerous detoxifying and antioxidant genes, such as the phase II detoxification enzymes heme oxygenase (HO1) and NAD(P)H:quinone oxidoreductase-1 (NQ01) (36). DI-591 (Example 58) was compared to dimethyl fumarate (DMF) for their effect on NRF2 and NQ01 protein levels in the THLE2 liver cell line with DI-591DD included as a control with the data shown in FIG. 3. THLE2 liver cell line was treated by DI-591 at 10 μM, DI-591DD at 10 μM or DMF at 10 μM for different time points.
as §2, §3

[6] = molecular target: DCN1 (Homo sapiens (Human), UniProt Q96GG9); test: FP protein saturation experiment (Kd of fluorescent probe); settings: fluorescein-labeled probe; read-out: Binding affinity to DCN1, Kd
Sequence of DCN1 (Q96GG9 58-259): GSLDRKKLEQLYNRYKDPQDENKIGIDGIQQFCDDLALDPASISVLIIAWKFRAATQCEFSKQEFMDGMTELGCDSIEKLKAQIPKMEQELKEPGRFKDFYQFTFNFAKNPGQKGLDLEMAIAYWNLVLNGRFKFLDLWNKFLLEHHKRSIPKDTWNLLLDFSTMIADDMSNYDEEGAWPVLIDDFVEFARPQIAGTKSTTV
Description: The Fluorescence Polarization (FP) competitive binding assays were performed to accurately determine the binding affinities of our DCN1 inhibitors. A novel FAM labeled fluorescent probe compound (46) was designed and synthesized based on one of our potent small molecule DCN1 inhibitors. […] Serial dilutions of proteins were mixed with 46 to a final volume of 200 μl in the assay buffer (100 mM phosphate buffer, pH=6.5, with 0.02% Tween-20 and 2% DMSO). Final probe concentration was 5 nM for both assays. Plates were incubated at room temperature for 30 minutes with gentle shaking to assure equilibrium. FP values in millipolarization units (mP) were measured using the Infinite M-1000 plate reader (Tecan U.S., Research Triangle Park, NC) in Microfluor 1 96-well, black, round-bottom plates (Thermo Scientific, Waltham, MA) at an excitation wavelength of 485 nm and an emission wavelength of 530 nm.
Human DCN1 (residues 58-259) were cloned into a pDEST17 plasmid containing an N-terminal His6 tag. DCN2 (residues 62-259), DCN3 (residues 86-304), DCN4 (residues 102-292) and DCN5 (residues 47-237) were cloned into an N-terminal His6-TEV expression vector. Pure proteins were derived from the same expression and purification protocols. […]

Row | Structure (SMILES) | protein levels of Cyclin E, BimEL and CDT1 (substrates of Cul-1 and Cul-4A) [1] | mRNA level of NRF2 [2] | mRNA levels of NQ01 and HO1 (NRF2-regulated genes) [2] | neddylation of cullin 1 [3] | neddylation of cullin 3 ([4]; THLE2, DI-591 at 10 μM or MLN4924 at 0.3 μM, 5 minutes to 24 hours) | neddylation of cullin 3 ([4]; THLE2 liver cell line, dose-range, 24 h) | accumulation of NRF2 and NQ01 protein ([5]; THLE2 liver cell line, 10 μM, different time points) | abundance of NRF2 protein (cullin 3 substrate) ([5]; THLE2 liver cell line, dose-range, 24 h, western blotting) | NRF2 protein, immunohistochemical data ([5]; liver cells) | Kd [6] [nM]
1 | CCC(=O)N[C@@H](Cc1nc2ccc(C(C)C)cc2s1)C(=O)N[C@H](CNC(=O)CCN1CCOCC1)C1CCCCC1 [Example 58, (S)—N—((S)-1-cyclohexyl-2-(3-morpholinopropanamido)ethyl)-3-(6-isopropylbenzo[d]thiazol-2-yl)-2-propionamidopropanamide] | no or minimal effect | no effect | upregulates; also recorded: clearly increases | little effect | rapidly inhibits | selectively and dose-dependently inhibits | stimulate the accumulation | induces upregulation; also recorded: selectively increased | increased | –
2 | CCC(=O)N[C@@H](Cc1nc2ccc(C(C)C)cc2s1)C(=O)N[C@H](CNC(=O)C1CCN(CCOCCOCCOCCNC(=O)c2ccc3c(c2)C(=O)OC32c3ccc(O)cc3Oc3cc(O)ccc32)CC1)C1CCCCC1 [Example 127, N—((S)-2-cyclohexyl-2-((S)-3-(6-isopropylbenzo[d]thiazol-2-yl)-2-propionamidopropanamido)ethyl)-1-(1-(3′,6′-dihydroxy-3-oxo-3H-spiro [isobenzofuran-1,9′-xanthen]-5-yl)-1-oxo-5,8,11-trioxa-2-azatridecan-13-yl)piperidine-4-carboxamide] | – | – | – | – | – | – | – | – | – | 21.9

Source: patent publication US12012467B2, “Small molecule DCN1 inhibitors and therapeutic methods using the same” (THE REGENTS OF THE UNIVERSITY OF MICHIGAN, priority 2017, dated 2024)
